Our source for the TGI and GI50 values is PubChem BioAssay (NCI).

Test systems include KM12 colon; NCI-H522 lung; HCC-2998 colon; NCI-H23 lung; MALME-3M melanoma; UACC-257 melanoma; SF-295 CNS; OVCAR-4 ovarian.
Holding throughout (assay): DTP human tumour cell line panel, 48 h

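Where inhibition never reached the appropriate level, the endpoint shown equals the highest concentration tested. Otherwise, values were interpolated linearly from a five-concentration, 48-hour dose response in 96-well plates. GI50 marks 50% less growth. TGI: concentration producing complete growth inhibition.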 Some results are limits rather than exact numbers.

With `O=C1C(c2ccc(Br)cc2)=[N+]([O-])c2ccccc21`, the TGI amounted to 30.4 µM in the assay on KM12 colon; 11.8 µM with NCI-H522 lung; 29.3 µM in the assay with HCC-2998 colon; 30.4 µM in the assay with NCI-H23 lung; 32.7 µM with MALME-3M melanoma; 24.7 µM in the assay with UACC-257 melanoma.
With `O=[N+]([O-])C=C(c1ccc(Cl)cc1)c1ccc(Cl)cc1`, the TGI with SF-295 CNS is 32.8 µM; with KM12 colon, 30.1 µM; in the assay on NCI-H522 lung it was 28.8 µM; with HCC-2998 colon, 34.4 µM; in the assay on OVCAR-4 ovarian, 27.6 µM; with NCI-H23 lung it was 25.6 µM. For the same molecule, the TGI in the assay with UACC-257 melanoma turned out to be 36.9 µM.
As to `CC1=C(C(=O)Nc2ccccc2)C(c2cccc3ccccc23)C(C(=O)Nc2ccccc2)=C(C)N1`, the TGI was 46.6 µM in the assay on SF-295 CNS; 35.6 µM in the assay on NCI-H522 lung; 38.6 µM in the assay with HCC-2998 colon; 52.5 µM in the assay with NCI-H23 lung; 37.4 µM in the assay with MALME-3M melanoma; 39.2 µM in the assay with UACC-257 melanoma.
For `O=S(=O)(O)c1cc(O)c(N=Nc2ccc(O)cc2O)c2ccccc12`, the TGI in the assay with SF-295 CNS is more than 100 µM; in the assay on KM12 colon it was more than 100 µM; with NCI-H522 lung, 95.4 µM; in the assay with OVCAR-4 ovarian, more than 100 µM; with MALME-3M melanoma, more than 100 µM; in the assay on UACC-257 melanoma, more than 100 µM.
For `Cc1cc2c(C)n(Cc3ccccc3Cl)nc2c(C(=O)O)c1C`, the TGI in the assay with SF-295 CNS, with HCC-2998 colon, with NCI-H23 lung, with MALME-3M melanoma and in the assay with UACC-257 melanoma was more than 100 µM throughout.
Turning to `COc1ccc2c3c([nH]c2c1[N+](=O)[O-])C(C)N(Cc1ccccc1)CC3` (centres undefined), the total growth inhibition concentration (TGI) in the assay on KM12 colon was more than 100 µM; with HCC-2998 colon it was more than 100 µM; with OVCAR-4 ovarian, more than 100 µM; with NCI-H23 lung it was more than 100 µM; in the assay with UACC-257 melanoma, 14.5 µM.
Turning to `CC1=C(/C=C/C(C)=C/C2CC(N(C)C)=CC(=O)O2)C(C)(C)CCC1` (centres undefined), the TGI in the assay with SF-295 CNS is 26.1 µM; in the assay with KM12 colon, 31.2 µM; in the assay on HCC-2998 colon it was 26.7 µM; with OVCAR-4 ovarian it was 31.7 µM; in the assay on NCI-H23 lung it was 27.8 µM; in the assay on MALME-3M melanoma, 28.6 µM. The molecule further had a TGI in the assay with UACC-257 melanoma of 24.9 µM.
`CN(c1ccc(C(=O)c2ccc(N(C)S(C)(=O)=O)cc2)cc1)S(C)(=O)=O`: the TGI with SF-295 CNS, in the assay on KM12 colon, in the assay on NCI-H522 lung, in the assay with OVCAR-4 ovarian, in the assay with NCI-H23 lung and with MALME-3M melanoma was more than 100 µM throughout. Further, in the assay with UACC-257 melanoma, the TGI was more than 100 µM.
On to `CNC(=O)c1c(NC(=O)c2ccc(C(C)(C)C)cc2)sc2c(CN(C)C)c(O)ccc12`, for which the GI50 with SF-295 CNS was 1.86 µM; in the assay on KM12 colon it was 1.78 µM; in the assay with HCC-2998 colon, 1.34 µM; in the assay on MALME-3M melanoma, 1.73 µM; in the assay with UACC-257 melanoma, 1.95 µM. For the same molecule, the TGI in the assay with SF-295 CNS was 3.56 µM; with KM12 colon, 3.2 µM; with HCC-2998 colon, 2.94 µM; in the assay with MALME-3M melanoma it was 3.51 µM; with UACC-257 melanoma it was 4.09 µM.
For the molecule `CC(=O)[O-].Cn1ccnc1CNCc1nccn1C.[Cu+2].[O-][Cl+3]([O-])([O-])[O-]`, the GI50 in the assay with SF-295 CNS was 96.9 µM; in the assay with KM12 colon it was more than 100 µM; in the assay on NCI-H522 lung, more than 100 µM; with HCC-2998 colon, more than 100 µM; with OVCAR-4 ovarian it was 3.1 µM; in the assay on NCI-H23 lung, more than 100 µM. Besides, the concentration for total growth inhibition (TGI) in the assay on SF-295 CNS, with KM12 colon, in the assay with NCI-H522 lung, in the assay on HCC-2998 colon, with OVCAR-4 ovarian and with NCI-H23 lung was more than 100 µM throughout.
For `O=C([CH-]C(=O)c1ccccc1)c1ccccc1.[CH-]1CCCCC1.[CH-]1CCCCC1.[CH-]1CCCCC1.[Sn+4]`, the GI50 is 8.1 µM in the assay on SF-295 CNS; 10.8 µM in the assay on KM12 colon; 2.03 µM in the assay on NCI-H522 lung; 6.1 µM in the assay with HCC-2998 colon; 6.06 µM in the assay with NCI-H23 lung; 8.75 µM in the assay with MALME-3M melanoma. Also, the GI50 with UACC-257 melanoma is 4.29 µM. Besides, the TGI in the assay on SF-295 CNS came to 22.1 µM; with KM12 colon, 24.2 µM; in the assay with NCI-H522 lung, 5.26 µM; with HCC-2998 colon, 18.9 µM; in the assay on NCI-H23 lung, 20.3 µM; with MALME-3M melanoma, 22.1 µM. The molecule also had a TGI in the assay on UACC-257 melanoma of 19.2 µM.
Regarding `CCc1cccc(C)c1NC(=O)C(=O)CC(=O)c1ccc(Cl)s1`, the TGI with SF-295 CNS, with KM12 colon, with HCC-2998 colon, with OVCAR-4 ovarian, with NCI-H23 lung and in the assay with MALME-3M melanoma was more than 100 µM each time. Also, in the assay on UACC-257 melanoma, the concentration for total growth inhibition (TGI) is more than 100 µM.
Consider `CCOP(=O)(OCC)C1CCCOC1=O` (centres undefined), for which the TGI in the assay on SF-295 CNS, in the assay on KM12 colon, in the assay on HCC-2998 colon, in the assay on OVCAR-4 ovarian, in the assay on NCI-H23 lung and with MALME-3M melanoma was more than 100 µM throughout. Further, the TGI with UACC-257 melanoma was more than 100 µM.
